# Test results from patent publication US9718840B2, “Condensed 5-oxazolidinone derivative” (SUMITOMO DAINIPPON PHARMA CO., LTD., priority 2014, dated 2017).
# Test system: Rabbit venous thrombus models
# Test: In vivo antithrombotic effect evaluation test using rabbit (arteriovenous shunt)
# Conditions: prompt i.v. + continuous i.v.
# Procedure: Rabbit venous thrombus models were prepared by a modification of the report of Wong et al. (Wong P C. et al., J. Pharmacol. Exp. Ther. 292: 351-357 (2000)). Male rabbits (JW, 2 to 4 kg) were anesthetized by the inhalation of isoflurane (ISOFLU®, manufactured by DS Pharma Animal Health Co., Ltd.) (introduced anesthesia: 4%, continuous anesthesia: 1.5 to 2.5%). A tracheostomy tube was inserted to each rabbit, which was then ventilated using a respirator. For the intravenous administration of a test drug and blood collection, catheters were inserted to the right femoral vein and the right femoral artery, respectively. An arteriovenous shunt filled with saline was inserted to the carotid artery and the jugular vein. The arteriovenous shunt was prepared by connecting Atom extension tubes (4Fr) having lengths of 15 cm and 13 cm to the artery side and the vein side, respectively, of a polyethylene tube (length: 60 cm, outside diameter: 11.1 mm, inside diameter: 7.9 mm). Also, 4-0 silk thread having a length of 5 cm was indwelled in the arteriovenous shunt. Blood was sent for 30 minutes from the carotid artery to the jugular vein via the arteriovenous shunt. The shunt was removed, and the weight of the silk thread covered with thrombus was measured. The weight of the silk thread measured before the experiment was subtracted from the measured weight, and the obtained value was used as a wet thrombus weight. One hour before the open of the arteriovenous shunt, the test drug or a vehicle was promptly intravenously administered (0.67 mL/kg) and then continuously intravenously administered (1 mL/kg/hr). The continuous injection was continued throughout the experiment. Further, an existing anticoagulant dabigatran (antithrombin drug) and rivaroxaban (FXa inhibitor) were tested as control drugs.
# In order to measure aPTT of blood samples as an index for the intrinsic coagulation pathway, blood was collected before administration and immediately before cessation of blood flow, and plasma was prepared using 3.2% sodium citrate. After incubation at 37° C. for 6 minutes, an STA reagent Cephascreen (for aPTT assay; manufactured by Roche Diagnostics K.K.) was added in an amount equal thereto, and the mixture was further incubated for 4 minutes. STA calcium chloride (manufactured by Roche Diagnostics K.K.) was added in an amount equal thereto, and the time required for coagulation was measured.
# In order to measure prothrombin time (PT) of blood samples as an index for the extrinsic coagulation pathway, blood was collected before administration and immediately before cessation of blood flow, and plasma was prepared using 3.2% sodium citrate. After incubation at 37° C. for 10 minutes, Neoplastin Plus (for PT assay; manufactured by Roche Diagnostics K.K.) was added in a double amount, and the time required for coagulation was measured.
# [1] = dose 0.15 + 0.225 mg/kg + mg/kg/h
# [2] = dose 0.5 + 0.75 mg/kg + mg/kg/h
# [3] = dose 1.5 + 2.25 mg/kg + mg/kg/h
compound,measurement,setting,value
"Cl.N[C@H](CF)[C@H]1CC[C@H](C(=O)N2CC[C@@H](C3CCCCC3)[C@H]2C(=O)Nc2ccc3[nH]c(C(=O)O)cc3c2)CC1 [Reference Example 2-6, 5-{[(3S)-1-({trans-4-[(1S)-1-Amino-2-fluoroethyl]cyclohexyl}carbonyl)-3-cyclohexyl-L-prolyl]amino}-1H-indole-2-carboxylic acid hydrochloride]",PT (ratio),[1],1.01 ± 0.02 ratio
same,Thrombus weight,[1],81 ± 12 mg
same,aPTT (ratio),[1],1.24 ± 0.08 ratio
same,PT (ratio),[2],1.00 ± 0.02 ratio
same,Thrombus weight,[2],66 ± 22 mg
same,aPTT (ratio),[2],1.59 ± 0.15 ratio
same,PT (ratio),[3],1.01 ± 0.00 ratio
same,Thrombus weight,[3],36 ± 6 mg
same,aPTT (ratio),[3],1.84 ± 0.10 ratio
same,PT (ratio),dose 5.0 + 7.5 mg/kg + mg/kg/h,1.02 ± 0.02 ratio
same,Thrombus weight,dose 5.0 + 7.5 mg/kg + mg/kg/h,16 ± 6 mg
same,aPTT (ratio),dose 5.0 + 7.5 mg/kg + mg/kg/h,2.35 ± 0.09 ratio
